Reference: the NIST ThermoML archive (doi:10.1016/j.jct.2012.06.020)

Details: 101.33 kPa, Liquid, Vibrating tube method

C[S+](C)[O-] [dimethyl sulfoxide]
Details | mass density [kg/m3]
293.15 K | 1100.22
298.15 K | 1095.19
303.15 K | 1090.16
313.15 K | 1080.12
323.15 K | 1070.07
333.15 K | 1060.03
